“And” between values parts separate entries of the source, which are not always exact repeats. Equal entries are not always repeated. Where two headings read alike, the source gives them in different places.

By IC50 is commonly meant the midpoint of a concentration-inhibition curve.

Test [1] has as its target T1, ABL1-N-HiBiT kinase domain (Homo sapiens, UniProt P00519).
T1 sequence (P00519 233-500): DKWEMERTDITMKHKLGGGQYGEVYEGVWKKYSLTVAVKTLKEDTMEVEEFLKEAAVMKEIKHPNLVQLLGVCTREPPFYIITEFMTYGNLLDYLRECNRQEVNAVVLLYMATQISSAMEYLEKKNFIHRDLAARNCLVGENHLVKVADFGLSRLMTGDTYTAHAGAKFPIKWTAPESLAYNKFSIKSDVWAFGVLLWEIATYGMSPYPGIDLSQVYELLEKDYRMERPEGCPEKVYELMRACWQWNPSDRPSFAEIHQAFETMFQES
Put plainly: SDR assay, ABL1-N-HiBiT. The settings on record: for SDR output: ABL1-N-HiBiT, Log [Compound]; for ABL1 SDR pSDR50: heatmap data, 128 kinase inhibitors; for EC50: read-out: SDR Ave SDR50, average, unit inferred.

In test [2] the target is T1, ABL1-N-HiBiT kinase domain. The experiment in a line: ABL1 peptide phosphorylation, Kinase-Glo Plus (KGP) assay, ABL1-N-HiBiT. It counts as biochemical. The arrangement: containing amino acid residues Asp233-Ser500; His10 (N); made in house; host or cells: E. coli BL21(DE3).
For test [3], the target named is T2, ABL1-C-HiBiT kinase domain (Homo sapiens, UniProt P00519).
T2 sequence (P00519 233-500): T1 sequence (P00519 233-500)
Put plainly: SDR assay, ABL1-C-HiBiT. The note with it: for SDR output: ABL1-C-HiBiT, Log [Compound].

Test [4] deals with T3, DHFR-C-HiBiT (Homo sapiens, UniProt P00374).
T3 sequence (P00374 2-187): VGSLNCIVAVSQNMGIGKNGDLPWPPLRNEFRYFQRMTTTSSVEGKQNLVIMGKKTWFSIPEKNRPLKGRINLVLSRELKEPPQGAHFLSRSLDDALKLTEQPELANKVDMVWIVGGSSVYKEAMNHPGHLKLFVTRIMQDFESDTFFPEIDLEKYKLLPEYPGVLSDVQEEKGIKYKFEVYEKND
The experiment in a line: SDR assay, purified DHFR-C-HiBiT. The settings on record: for enhanced sensitivity in the SDR assay format versus functional DHFR assay: DHFR-C-HiBiT 0.5 nM, 5 μM NADPH (SDR) vs 100 nM, 75 μM NADPH (functional). (In general: The HiBiT peptide binds its large partner to form an active luciferase.)

In test [5] the target is T3, DHFR-C-HiBiT. Put plainly: Dihydrofolate reductase enzymatic absorbance assay. It counts as biochemical. More on the design: His10 (C); made in house; host or cells: E. coli. The note with it: DHFR-C-HiBiT 100 nM, 75 μM NADPH. The protocol:
To accommodate consistent compound addition used in this study, DHFR enzymatic activity[72],[73] was measured in a 1536-well miniaturized assay adapted from the Sigma-Aldrich dihydrofolate reductase assay (Cat # CS0340). […] Compounds and controls were added as above to each plate as described in Supplementary Data 8. DHFR-C-HiBiT was incubated with compounds for 20 min at ambient temperature. […] Then 2 µL of dihydrofolate (DHF, Sigma-Aldrich, Cat # D7006) substrate, freshly prepared according to manufacturer’s protocol and diluted in 1X assay kit buffer, was dispensed into each microplate well with a BioRaptr 2 for a final assay DHF concentration of 100 μM. […] See Supplementary Table 9 for additional details.
Supplementary Table 9. Protocol for Dihydrofolate reductase (DHFR) enzymatic absorbance […]
Supplementary Table 9: Protocol for Dihydrofolate reductase (DHFR) enzym atic absorbance assay Sequence Param eter ValueDescription
No enzym e control (colum n 1) and enzym e solution (100 nM DHFR-C-HiBiT final assay […]
(Aurora), dispensed with BioRaptr 2 […]
com pounds transferred to respective colum ns with Pintool
2b Test Com pounds 23 nLfinal concentration range) in colum ns 5-48; com pounds transferred to respective wells with […]
3 Incubation 20 m inIncubate enzym e + com pounds at am bient tem p for 20 m in, protected from light 5 Reagent 2 µLSubstrate solution; dihydrofolic acid (100 µM final concentration) in 1X assay buffer; dispensed with BioRaptr 2
6 Incubation 10 m inAm bient tem perature, protected from light
Dihydrofolic acid substrate solution: 1X assay buffer (Sigm a-Aldrich, Cat # A5603); 300 µM dihydrofolic acid (100 µM 5 final) (Sigm a-Aldrich, Cat # D7006) prepared fresh according to m anufacturer’s protocol. Solution filtered through 0.22 µm syringe filter prior to dispense.

The next test concerns PKA. The settings on record: annotation yes/no for kinase library compound; source not given; cited from earlier work.
In another test the test system is ABL1. The note with it: cited from earlier work.
The target of test [6] is T4, PKA-N-HiBiT (Homo sapiens, UniProt P17612). Put plainly: SDR assay, PKA-N-HiBiT. The note with it: for SDR Ave Max Response: average maximal response.
For test [7], the target named is T4, PKA-N-HiBiT. The experiment in a line: PKA peptide phosphorylation, Kinase-Glo Plus (KGP) assay, PKA-N-HiBiT. The class given is biochemical. The arrangement: containing amino acids Gly2-Phe351; His10 (N); made in house; host or cells: E. coli BL21(DE3). The settings on record: KGP Rep 1. The procedure: Kinase activity was measured by ATP depletion using the Kinase-Glo Plus (KGP) assay kit (Promega) in 1536-well plate format. […] Controls were added with a Mosquito dispenser (STP LabTech) while compounds were transferred with a pintool to each plate as described in Supplementary Data 8 and incubated for 30 min at ambient temperature. […] Following a 10 min incubation, KGP luminescence was measured with a ViewLux plate reader with 1 sec exposure, with medium to high gain setting, slow speed and 2x binning. Data were normalized to the average of no enzyme control column as 100% kinase inhibition and DMSO control column as 100% phosphorylation reaction progress. See Supplementary Table 5 for additional details.
Protocol for Abelson kinase (ABL1) and protein kinase A (PKA) peptide phosphorylation assays
Supplementary Table 5: Protocol for Abelson kinase (ABL1) and protein kinase A (PKA) peptide phosphorylation assays Sequence Param eter Value Description
3 Incubation 30 m in Incubate enzym e + com pounds at am bient tem p for 30 m in, protected from light […]
protocol; dispensed with BioRaptr 2

The mark [8] stands for this setting: ABL1-N-HiBiT qHTS, average maximal SDR response.

For the compound `O=C(NCCO)c1cccc(-c2cc(Nc3ccc(OC(F)(F)F)cc3)ncn2)c1` [GNF5], the SDR output is -1.2 in test [1] (M -4.51); 1.9 and 2.5 in test [1] (M -8.12); 2.5 in test [1] (M -8.42); 2.7 and 1.9 in test [1] (M -8.72); 11.5 and 10.7 in [3] (M -4.20); 4.5 and 3.0 in test [3] (M -5.41). Further, the SDR output was 0.159 and 0.3 in test [3] (M -5.71); 1.8 and 1.6 in test [3] (M -7.21); 3.3 and 3.0 in test [3] (M -7.52); 5.4 and 5.3 in [3] (M -7.82); 3.3 and 3.7 in test [3] (M -8.12); 7.4 and 4.5 in test [3] (M -8.42). For the same compound, in test [2] (Log [Compound], M -4.51), the “Effect on enzyme catalysis” value is 1.2 and 2.4.

On to `Nc1nc2[nH]cc(CCc3ccc(C(=O)N[C@@H](CCC(=O)O)C(=O)O)cc3)c2c(=O)[nH]1` [pemetrexed], for which the “DHFR binding in SDR assay (in words)” value on DHFR-C-HiBiT [4] (purified DHFR-C-HiBiT) is recorded as “poor DHFR affinity”. Moreover, the “DHFR affinity in functional assay (in words)” value on DHFR-C-HiBiT [5] is “poor DHFR affinity”.

Consider `Nc1nc(N)c2nc(CNc3ccc(C(=O)N[C@@H](CCC(=O)O)C(=O)O)cc3)cnc2n1` [aminopterin], for which the “enhanced sensitivity in the SDR assay format versus functional DHFR assay” value on DHFR-C-HiBiT [4] is reported as ~ 100 fold.

Take `C/C(O)=C(\C#N)C(=O)Nc1cc(Br)ccc1Br` [LFM-A13]: in test [1], the “ABL1 SDR pSDR50” value turned out to be 5.44. The “SDR Ave Max Response” value in [1] (setting [8]) is -82.68; at PKA-N-HiBiT [6] (PKA-N-HiBiT qHTS, SDR assay) it was -81.79. In addition, the EC50 in test [1] (ABL1-N-HiBiT qHTS) was 3.72 µM; on PKA-N-HiBiT [6] (read-out: PKA SDR Ave SDR50, PKA-N-HiBiT qHTS, SDR assay, average), 4.14 µM. Also, the “Annotated PKA activity” value in the test on PKA is listed as “no”. The “Annotated ABL1 activity” value in the test on ABL1 is “no”. Further, the “PKA SDR Assay Mean (pSDR50)” value on PKA-N-HiBiT [6] (without ATP) amounted to 5.40.

Take `CN(Cc1cnc2nc(N)nc(N)c2n1)c1ccc(C(=O)NC(CC(F)C(=O)O)C(=O)O)cc1` (stereo not shown) [γ-fluoromethotrexate]: the “enhanced sensitivity in the SDR assay format versus functional DHFR assay” value on DHFR-C-HiBiT [4] is given as ~ 100 fold.

For `COc1cc2c(Oc3ccc4[nH]c(C)cc4c3F)ncnc2cc1OCCCN1CCCC1` [Cediranib], the “SDR Ave Max Response” value in [1] is on record as 72.22; on PKA-N-HiBiT [6] (PKA-N-HiBiT qHTS, SDR assay) it was 5.41. The “Annotated PKA activity” value in the test on PKA is on record as “no”. Also, in the test with ABL1, the “Annotated ABL1 activity” value is on record as “yes”.

With `Cn1c(=O)c2c(ncn2C)n(C)c1=O` [Caffeine], on PKA-N-HiBiT [7], the Efficacy is on record as -14.65, the “Hill Coef” value is recorded as 2.85 and the “Max Resp” value is 7.79. Further, the CC-v2 at PKA-N-HiBiT [7] (curve class) was found to be 4. Also, in test [1] (setting [8]), the “SDR Ave Max Response” value amounted to 3.59. Further, the “Annotated PKA activity” value in the test with PKA is listed as “no”. In the test on ABL1, the “Annotated ABL1 activity” value is given as “no”. At PKA-N-HiBiT [6] (PKA-N-HiBiT qHTS, SDR assay), the “SDR Ave Max Response” value was -17.81.

Regarding `O=[N+]([O-])O[C@H]1CO[C@H]2[C@@H]1OC[C@H]2O[N+](=O)[O-]` [Isosorbide dinitrate], the “SDR Ave Max Response” value in test [1] (setting [8]) was 6.72; on PKA-N-HiBiT [6] (PKA-N-HiBiT qHTS, SDR assay), 6.02. For the same compound, the “Annotated PKA activity” value in the test on PKA is listed as “no”. Further, in the test on ABL1, the “Annotated ABL1 activity” value is given as “no”.

Regarding `COc1cc(N2CCN(C)CC2)ccc1Nc1nc(N)c(C(=O)c2c(Cl)cccc2Cl)s1` [HMSL10089], the “SDR Ave Max Response” value in test [1] is listed as 0.77; at PKA-N-HiBiT [6] (PKA-N-HiBiT qHTS, SDR assay), -4.43. The “Annotated PKA activity” value in the test with PKA is “no”. Also, in the test on ABL1, the “Annotated ABL1 activity” value is given as “no”.

Turning to `O=C(NCCO)c1cccc(-c2cc(Nc3ccc(OC(F)(F)F)cc3)ncn2)c1` [GNF-5, reference compound], the “detection in ABL1-N-HiBiT SDR assay (in words)” value in [1] was “neither was identified”. Besides, the Emax in test [1] (read-out: SDR Ave Max Response) was found to be 13.8%; on PKA-N-HiBiT [6] (read-out: SDR Ave Max Response), 1.25%. Besides, the “Annotated PKA activity” value in the test on PKA is listed as “no”. Further, the “detection in functional enzymatic ABL1 kinase assay (in words)” value in test [2] (KGP assay) was “neither was identified”. Besides, the “detection in ABL1-C-HiBiT SDR assay (in words)” value in test [3] is on record as “beginning to detect”.

For the compound `COc1ccccc1-c1c[nH]c2ncc(-c3cncc(C(=O)N(C)C)c3)cc12` [PPY A], the “ABL1 SDR pSDR50” value in test [1] turned out to be 8.52. Moreover, the “SDR Ave Max Response” value in test [1] (setting [8]) is recorded as 88.01; at PKA-N-HiBiT [6] (PKA-N-HiBiT qHTS, SDR assay) it was 11.97. For the same compound, in test [1] (ABL1-N-HiBiT qHTS), the EC50 was 0.00304 µM. Besides, the “Annotated PKA activity” value with PKA was “no”. For the same compound, the “Annotated ABL1 activity” value in the test with ABL1 is “yes”. In test [2] (ABL1, Kinase-Glo Plus (KGP), heatmap data, 128 kinase inhibitors), the “ABL1 KGP pIC50” value is on record as 7.53. In addition, the IC50 in [2] (ABL1-N-HiBiT qHTS, average, unit inferred, read-out: ABL1 KGP Ave IC50) stood at 0.0341 µM.

In the case of `COc1cc2c(N3CCN(C(=O)Nc4ccc(OC(C)C)cc4)CC3)ncnc2cc1OCCCN1CCCCC1` [Tandutinib], the “SDR Ave Max Response” value in test [1] was found to be 63.54; at PKA-N-HiBiT [6] (PKA-N-HiBiT qHTS, SDR assay), 7.68. Further, the “Annotated PKA activity” value with PKA is “no”. Also, the “Annotated ABL1 activity” value in the test with ABL1 is “no”.

Regarding `COc1cc(NCc2ccc3nc(N)nc(N)c3c2C)cc(OC)c1OC` [trimetrexate], on DHFR-C-HiBiT [4], the “enhanced sensitivity in the SDR assay format versus functional DHFR assay” value was ~ 100 fold.

Values taken from paper PMC12064818, “A general assay platform to study protein pharmacology using ligand-dependent structural dynamics” (Nature Communications, 2025).
